# Several values for one entry are separate records, joined by “and”; a condition that tells them apart may be missing. Equal entries are not always repeated.
# Assays:
# SW1353 cells = assay: Proliferation of SW1353 cells cultured beforehand with or without GW9662; assay type: cell-based, human
# Experimental: Cells of the human chondrosarcoma cell line, SW1353, were cultured in the same manner as that of Example 1 until they became sub-confluent, then, GW9662, which is an irreversible antagonist of PPARγ, was added to the cells at a final concentration of 1 μM, and the cells were cultured for 60 minutes. Then, zaltoprofen was added to the cells at various concentrations of 100, 200, 300, and 400 μM, color development was performed with Cell. Counting Kit-8 (CCK-8, Dojindo) 72 hours thereafter, absorbance was measured at 450 nm further 3 hours thereafter, and the result was compared with the absorbance observed with adding only DMSO not dissolving GW9662 (FIG. 68).
# [1] = test system: pigmented villonodular synovitis (PVNS); assay: Curative effect of zaltoprofen (Soleton Tablet) on PVNS patients; assay type: in vivo, human
# Experimental: Soleton Tablet 80 (generic name: zaltoprofen, 80 mg, Nippon Chemiphar) was administered to a patient with giant cell tumor of bone (GCTB), patient with giant cell tumor of tendon sheath (GCTT), or patient with pigmented villonodular synovitis (PVNS) at a dose of 3 tablets per day (one tablet was administered in the morning, at noon, and in the evening), and the tumor size was evaluated by MRI every several months.
# PVNS patients were administered with 3 tablets per day (one tablet was administered in the morning, at noon, and in the evening) of Soleton Tablet 80 (generic name; zaltoprofen, 80 mg, Nippon Chemiphar). Four weeks after the start of the administration, the tumor size was evaluated by imaging based on simple Roentgen contrast method, X-ray CT, and MRI (nuclear magnetic resonance imaging). Then, the tumors were excised from patients for whom surgical operation was possible, administration of zaltoprofen was continued at a dose of 240 mg per day (one 80 mg tablet was administered at the time of breakfast, lunch, and supper), and the tumor size was evaluated by imaging based on simple Roentgen contrast method, X-ray CT, and MRI (nuclear magnetic resonance imaging) every 16 weeks. Also for patients for whom surgical operation was difficult, administration of 240 mg zaltoprofen per day (one 80 mg tablet was administered at the time of breakfast, lunch, and supper) was continued, and the tumor size was evaluated by imaging based on simple Roentgen contrast method, X-ray CT, and MRI (nuclear magnetic resonance imaging) every 8 weeks.
# [2] = test system: PPARγ expression in GCTB cultured cells; conditions: GCTB derived from a patient; inventors' earlier reports; cited from earlier work
# [3] = test system: cultured cells of human giant cell tumor of tendon sheath (GCTT); assay: Tunel assay and caspase 3 staining of GCTT cultured cells; assay type: cell-based; conditions: zaltoprofen 400 μM or troglitazone 200 μM, compared with control
# Experimental: (§1) Further, the aforementioned GCTB cultured cells of the case 1 mentioned above were cultured on chamber cover slide glass, and zaltoprofen was added at different concentrations (100, and 200 μM) 24 hours afterward. Then, 8 hours and 24 hours afterward, the cells were fixed with 4% paraformaldehyde, staining with caspase 3 and Tunel assay were performed, and presence or absence of apoptosis was analyzed. In the Tunel assay, fragmented DNAs produced in the process of apoptosis were detected by the TdT-mediated dUTP nick end labeling method (TUNEL). Observation was performed with a fluorescence microscope (BZ-9000) of Keyence, and positive images for each concentration were quantitatively observed (FIGS. 2 to 5).
# (§2) Further, in the same manner as that of Example 1, the cultured cells of human giant cell tumor of tendon sheath (GCTT) and the cultured cells of human pigmented villonodular synovitis (PVNS) were subjected to staining with caspase 3 and Tunel assay, and presence or absence of apoptosis was analyzed (FIGS. 18 to 25).
# [4] = test system: PPARγ expression in cells of pigmented villonodular synovitis (PVNS); assay: PPARγ immunostaining of PVNS cells; assay type: cell-based, human; conditions: zaltoprofen 400 μM or troglitazone 200 μM
# [5] = test system: cells of giant cell tumor of tendon sheath (GCTT); assay: Fat cell differentiation of GCTT cells (HCS LipidTOX Green); assay type: cell-based, human; conditions: zaltoprofen 400 μM, compared with control
# Experimental: (§3) It has been reported that PPARγ is a transcription factor indispensable for fat cell differentiation. Therefore, the GCTB cultured cells of the aforementioned case 1 were cultured on chamber cover slide glass, and when they reached confluent, zaltoprofen was added to the cells at various concentrations (10, 50, and 100 μM). From 24 hours thereafter, the cells were cultured in a fat cell differentiation-inducing medium (STREMPRO Adipogenesis Differentiation Kit, Invitrogen) for 7 to 14 days, and differentiation into fat cells was analyzed with HCS Lipid TOX Green Neutral Lipid Stain (Invitrogen) (FIGS. 8 and 9).
# It has been reported that PPARγ is a transcription factor indispensable for fat cell differentiation. Therefore, in the same manner as that of Example 3, zaltoprofen was added at a concentration of 400 μM to the cells of giant cell tumor of tendon sheath (GCTT) or cells of pigmented villonodular synovitis (PVNS), and differentiation into fat cells was analyzed (FIGS. 30 and 31). As a result, it was successfully confirmed that the positive images obtained with HCS LipidTOX Green increased in the zaltoprofen-added cells compared with the control.
# [6] = test system: cultured cells of human pigmented villonodular synovitis (PVNS); assay: Tunel assay and caspase 3 staining of PVNS cultured cells; assay type: cell-based; conditions: zaltoprofen 400 μM or troglitazone 200 μM, compared with control
# Experimental: as §1, §2
# [7] = test system: PPARγ expression in GCTB cultured cells; assay: PPARγ immunostaining of GCTB cultured cells; assay type: cell-based, human; conditions: zaltoprofen 10, 50, 100, 200 μM; 24 hours; about 15% in the control
# Experimental: The GCTB cultured cells of the aforementioned case 1 were cultured on chamber cover slide glass, and 24 hours thereafter, zaltoprofen was added at various concentrations (10, 50, 100, and 200 μM). After 24 hours, the cells were fixed with 4% paraformaldehyde, and immunohistochemical staining of PPARγ was performed. The PPARγ protein was fluorescently detected by using the antibody SC-7273 of Santa Cruz Biotechnology, Inc. as the primary antibody and the rat anti-mouse IgG FITC (11-4011-85) of eBioscience as the secondary antibody. Observation was performed with a fluorescence microscope (BZ-9000) of Keyence, and positive images for each concentration were quantitatively observed (FIGS. 6 and 7).
# [8] = test system: PPARγ expression in H-EMC-SS cells; conditions: inventors' earlier reports; cited from earlier work
# [9] = test system: GCTB cultured cells of the case 1; assay: Fat cell differentiation of GCTB cultured cells (HCS Lipid TOX Green Neutral Lipid Stain); assay type: cell-based, human; conditions: zaltoprofen 10, 50, 100 μM; fat cell differentiation-inducing medium 7 to 14 days
# Experimental: as §3
# [10] = recurrence of PVNS in the right knee (person; case b), after two months
smiles,measurement,setting,value
CC(C(=O)O)c1ccc2c(c1)CC(=O)c1ccccc1S2 (stereo not drawn) [zaltoprofen],cell proliferation-suppressing action after preincubation with GW9662,"SW1353 cells; SW1353, GW9662 1 μM, 60 minutes beforehand",markedly reduced by GW9662
same,suppression of proliferation of SW1353 cells,"SW1353 cells; zaltoprofen 100, 200, 300, 400 μM, 72 hours",suppressed by zaltoprofen in a concentration-dependent manner
same,diameter of PVNS after taking zaltoprofen,"[1]; PVNS case a, shoulder joint, about 50 weeks, 27.7 mm before",7.9 mm
same,diameter (major axis) of PVNS after taking zaltoprofen,"[1]; PVNS case c, right knee joint, about 35 weeks, 59.5 mm before",47.2 mm and 48.0 mm
same,KPS score after taking zaltoprofen,"[1]; PVNS cases a and b, score 70 before",100
same,change of PVNS,"[1]; PVNS cases a, b, c, d, e, and f, no treatment except zaltoprofen",shrank
same,KPS score after taking zaltoprofen,"[1]; PVNS cases c and d, score 80 before",90
same,new metastasis during the taking of zaltoprofen,[1]; PVNS patients,any new metastasis of PVNS was not observed
same,recurrence during the taking of zaltoprofen after ablative operation,[1]; PVNS patients subjected to ablative operation,no recurrence of PVNS could be confirmed
same,shrinkage of PVNS in patients who took zaltoprofen,[1]; all the patients,shrinkage of PVNS could be confirmed in all the patients
same,number of cases judged to be partial response (PR),"[1]; among 11 PVNS cases for which the response rate was determined, 240 mg per day",one
same,cases in which the KPS score worsened,[1]; cases of PVNS who took zaltoprofen,no case in which the KPS score worsened
same,response judgement of all the PVNS patients who took zaltoprofen,"[1]; human, in vivo",partial response (PR) or stable disease (SD)
same,MRI imaging effect,"[1]; recurrence of PVNS in the right knee (case i), 3 tablets per day, after three months",attenuation of the MRI imaging effect
same,pain and knee-joint excursion,"[1]; recurrence of PVNS in the right knee (case i), after three months",improvement was observed
same,pain,[1]; [10],improvement of pain
same,tumor size by MRI,[1]; [10],shrinkage of tumor
same,expression of PPARγ in the cells of giant cell tumor of bone,[2],promoted expression of PPARγ
same,Tunel-positive ratio,[3],increased
same,caspase 3-positive ratio,[3],increased
same,expression of PPARγ (PPARγ-positive images),[4],expression of PPARγ was successfully observed
same,positive images obtained with HCS LipidTOX Green (differentiation into fat cells),[5],increased
same,Tunel-positive ratio,[6],increased
same,caspase 3-positive ratio,[6],increased
same,expression of PPARγ (ratio of PPARγ-positive cells),[7],increased in a zaltoprofen concentration-dependent manner
same,expression of PPARγ in H-EMC-SS cells,[8],promoted expression of PPARγ
same,positive images obtained with HCS Lipid TOX Green Neutral Lipid Stain (differentiation into fat cells),[9],increased in a zaltoprofen concentration-dependent manner

# — patent US10653667B2, “Drug for preventing, treating or preventing metastasis of giant cell tumor that occurs in bone or soft parts, chondrosarcoma, or osteosarcoma, local injection for arterial embolization, and artificial bone” (NIPPON CHEMIPHAR CO., LTD, priority 2013, dated 2020)
